The assay addresses T1, AlaRS N71Y binding to GST-Nrp1 b1 (Homo sapiens, UniProt P49588, N71Y).
T1 construct: made in house; host or cells: E. coli BL21 (DE3), pET-21a for AlaRS
T1 sequence (P49588 1-968 N71Y): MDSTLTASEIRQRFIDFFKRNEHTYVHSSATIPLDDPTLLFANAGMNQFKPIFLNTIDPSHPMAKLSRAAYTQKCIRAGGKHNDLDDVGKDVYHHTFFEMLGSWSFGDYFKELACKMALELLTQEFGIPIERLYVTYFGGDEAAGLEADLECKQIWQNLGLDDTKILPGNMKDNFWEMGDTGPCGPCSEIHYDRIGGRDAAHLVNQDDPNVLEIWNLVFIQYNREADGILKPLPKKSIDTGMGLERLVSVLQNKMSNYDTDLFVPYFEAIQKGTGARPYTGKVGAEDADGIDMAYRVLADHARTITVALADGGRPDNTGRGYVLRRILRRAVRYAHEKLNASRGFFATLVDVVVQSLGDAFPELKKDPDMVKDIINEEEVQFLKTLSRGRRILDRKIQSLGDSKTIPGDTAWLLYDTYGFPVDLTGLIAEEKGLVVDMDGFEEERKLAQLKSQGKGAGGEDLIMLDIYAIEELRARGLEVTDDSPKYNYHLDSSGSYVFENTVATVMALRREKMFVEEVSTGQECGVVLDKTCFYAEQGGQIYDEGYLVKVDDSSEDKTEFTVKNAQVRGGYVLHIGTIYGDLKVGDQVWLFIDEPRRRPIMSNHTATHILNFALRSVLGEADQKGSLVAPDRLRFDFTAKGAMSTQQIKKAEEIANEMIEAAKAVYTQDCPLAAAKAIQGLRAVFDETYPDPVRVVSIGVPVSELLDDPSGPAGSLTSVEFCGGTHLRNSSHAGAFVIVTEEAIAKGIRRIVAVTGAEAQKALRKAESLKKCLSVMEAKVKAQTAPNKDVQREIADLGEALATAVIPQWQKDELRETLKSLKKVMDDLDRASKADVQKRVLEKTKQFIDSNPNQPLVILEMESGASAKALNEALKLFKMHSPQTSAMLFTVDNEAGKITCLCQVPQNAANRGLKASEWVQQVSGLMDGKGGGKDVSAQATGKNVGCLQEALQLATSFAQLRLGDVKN
In words: GST pull down assay. Conditions: 20 µM Tanshinone I, ImageJ, average of three repeats. Here is the method:
To further investigate whether Tanshinone I-induced conformational changes in AlaRS CMT mutants affect their interaction with Nrp1, Co-IP experiments were performed in cells treated with Tanshinone I. By comparing Co-IP results obtained before and after treatment, we assessed the influence of the drug on the binding strength and mode between the AlaRS CMT mutants and Nrp1. […] To confirm the direct effect of Tanshinone I on the interaction between AlaRS CMT mutants and Nrp1, pull-down experiments were performed. […] Given that the interaction between AlaRS mutants and Nrp1 is associated with disease progression in CMT, the ability of Tanshinone I to disrupt this binding highlights its potential to intervene in the pathogenic mechanisms of these diseases.
Figure 7 The impact of Tanshinone I on the interaction between AlaRS mutants and Nrp1. (A) Co-IP assays were conducted to assess the binding between HA-AlaRS mutants and Nrp1, both with and without treatment with 20 µM Tanshinone I for 24 h. […] (C) Pull down assay was performed to detect the binding between AlaRS mutants and GST-Nrp1 b1 with or without 20 µM Tanshinone I. (D) Relative quantification statistics of the AlaRS mutants pulled down from the GST pull down experiments after Tanshinone I treatment were performed using ImageJ. (E) The cell viability of 293T and NSC34 cells treated with different concentrations of Tanshinone I was assessed using the CCK-8 assay over a 24 h period. TEXT PRINTED IN THE PICTURE: (B) Tanshinone I: Mean density band (N71Y): 0.60; Mean density band (G102R): 0.53; Mean density band (R326W): 0.50; Mean density band (R329H): 0.50; Mean density band (E337K): 0.62 | (D) Tanshinone I: Mean density band (N71Y): 0.82; Mean density band (G102R): 0.76; Mean density band (R326W): 0.84; Mean density band (R329H): 0.84; Mean density band (E337K): 0.90
To detect the direct interactions between the mutant proteins and Nrp1 in vitro, we performed a Glutathione S-transferase (GST) pull-down assay. AlaRS mutants fused with 6 × His were purified with Ni-NTA beads, followed by chromatography on a HiTrap Q HP column. Nrp1 b1 fragments fused with GST were purified with Glutathione Beads (#SA008100, Smart-Lifesciences, Changzhou, China). For GST pull-down assays, 1000 μg of each GST-fused Nrp1 b1 fragment was mixed with 200 μg of 6 × His-tagged fusion protein in binding buffer (50 mM Tris-HCl pH 7.5, 20 mM NaCl, 5% glycerol, 5 mM DTT with 0.1% BSA) at 4 °C overnight. The mixture was next incubated with 30 μL glutathione beads at 4 °C with constant rotation for 2–4 h. Subsequently, the bead/protein complex was washed three times, and eluted with 30 μL 2 × SDS sample buffer. The samples were then subjected to SDS-PAGE analysis. The experiment was repeated three times.

Take `Cc1coc2c1C(=O)C(=O)c1c-2ccc2c(C)cccc12` [Tanshinone I]: the “Mean density band (N71Y), relative quantification of AlaRS mutant pulled down” value is reported as 0.82.
